Assay results published in patent US20240239806A1, “COMPOUNDS, COMPOSITIONS AND METHODS OF TREATING DISORDERS” (Chengdu Anticancer Bioscience, Ltd., priority 2021, published 2024).
Where two headings read alike, the source gives them in different places.

Legend:
Type in all cases: cell-based
Hela [1] = assay: MECP in cancer cell line; settings: Homo sapiens
Experimental: (§1) Six lung cancer cell lines (NCI-H23, NCI-H460, NCI-H596, NCI-H2170, Calu-6 and A549), two colon cancer cell lines (HCT116 and SW460), one breast cancer cell line MDA-MB-231, one gastric cancer cell line NCI-N87, one prostate cancer cell line DU145, one cervical cancer cell line Hela, and one glioblastoma cell line T98G were obtained from ATCC. The T2 HCC cell line was derived from a mouse liver cancer model initiated by a transgene of MYC. All cell lines were cultured in DMEM (Gibco, Cleveland, TN, USA) supplemented with 5% fetal bovine serum (Gibco), penicillin (100 U/mL)—streptomycin (100 μg/mL) (Gibco, Cat. No. 15140-122), 2 mM L-glutamine (Gibco, 200 mM solution, Cat. No. 25030081), and 1 mM sodium pyruvate (Gibco, 100 mM solution, Cat. No. 11360070) at 37° C. in a humidified incubator that was maintained at 5% CO2.
(§2) We have previously developed a mechanism-informed phenotypic screening assay to identify novel antimitotic agents. Equipped with a prior understanding of the versatile functions of the chromosomal passenger protein (CPP) complex in orchestrating karyokinesis and cytokinesis, the screening assay is to score for phenotypes typically seen when the CPP complex is disabled. Specifically, the parameters for a positive hit are a temporary elevation of mitotic index (MI) at 24 hours of drug treatment and an accumulation of polyploid cells at 48 hours of drug treatment, indicative of mitotic arrest and cytokinetic failure respectively. These parameters exclude compounds that elicit only a prolonged arrest of cells in mitosis, a phenotype typically provoked by spindle toxins. The screening procedure is briefly summarized here. RPEMYC^H2B-GFP cells engineered to express a Histone 2B-EGFP fusion protein were passaged as batches of 96-well plates, 18-24 hours before exposure to the chemical compounds of the present disclosure at concentrations from 1 nM to 30 μM. At 24, 48 or 72 hours after initiation of treatment, cells were analyzed for either an arrest in mitosis or a change in DNA content by GE IN-Cell Analyzer 2000. As set forth in Table 2 below, a value of greater than or equal to 1 nM and less than or equal to 1.0 μM is marked “A”; a value greater than 1.00 μM and less than or equal to 10.0 μM is marked “B”; a value greater than 10.0 μM and less than or equal to 30.0 μM is marked “C”; and a value greater than 30.0 μM is marked “D.”

SW480 [2] = assay: MECP in cancer cell line; settings: Homo sapiens
Experimental: as §1, §2

HCT116 [3] = assay: MECP in cancer cell line; settings: Homo sapiens, HCT-116
Experimental: as §1, §2

A549 [4] = assay: MECP in cancer cell line; settings: Homo sapiens
Experimental: as §1, §2

T2 HCC [5] = assay: MECP in cancer cell line; settings: Mus musculus
Experimental: as §1, §2

MDA-MB-231 [6] = assay: MECP in cancer cell line; settings: Homo sapiens
Experimental: as §1, §2

RPEMYC^H2B-GFP cells = assay: Phenotypic screening assay (mitotic arrest, polyploidy); settings: 1 nM to 30 μM; for IC50: read-out: Proliferative arrest (>50%)
Summary of the method: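 RPE cells expressing MYC and H2B-EGFP treated with compound at 1 nM–30 μM; mitotic index scored at 24 h and polyploidy (DNA content) at 48 h by automated imaging, with reads at 24, 48 or 72 h. Hits show transient mitotic arrest followed by polyploid accumulation.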

Hela [7] = assay: MTT assay of cellular proliferation; settings: Homo sapiens, 50% inhibition of cellular proliferation
Experimental: as §1
(§3) The MTT assay measures cellular metabolic activity as a proxy for cell viability and involves the conversion of the water-soluble yellow dye MTT [3-(4,5-dimethylthiazol-2-yl)-2,5-diphenyltetrazolium bromide] into an insoluble purple formazan by the action of mitochondrial reductase. Formazan is then solubilized and its concentration is determined by measuring the optical density (OD) value at a wavelength of 570 nm. The value is in proportional to the number of live cells with excellent linearity up to ˜10^6 cells per well. The MTT assay was used to determine the EC50 value, the concentration of a compound that leads to 50% inhibition of cellular proliferation. Briefly, cells were split when growing to the mid-Log phase. Cells in 100 μL of culture medium were seeded into each well of 96-well microplates and cultivated for 15-24 hours to reach a confluence of 20-30% and were then exposed to drugs at concentrations ranging from 1 nM to 30 μM. At the endpoint, 20 μL of a MTT stock solution in DMSO (5 mg/mL) was added to each well that contains 100 μL of DMEM. The microplates were left in the cell culture incubator for 3-4 h before subjected to solubilization and determination of formazan at A570 in a microplate reader (BioTek ELX808iu). […] Therefore, these compounds might hold a broad utility in the treatment of a large variety of human malignancies.

NCI-H23 [8] = assay: MTT assay of cellular proliferation; settings: Homo sapiens, 50% inhibition of cellular proliferation
Experimental: as §1, §3

SW480 [9] = assay: MTT assay of cellular proliferation; settings: Homo sapiens, 50% inhibition of cellular proliferation
Experimental: as §1, §3

HCT116 [10] = assay: MTT assay of cellular proliferation; settings: Homo sapiens, HCT-116, 50% inhibition of cellular proliferation
Experimental: as §1, §3

A549 [11] = assay: MTT assay of cellular proliferation; settings: Homo sapiens, 50% inhibition of cellular proliferation
Experimental: as §1, §3

NCI-N87 [12] = assay: MTT assay of cellular proliferation; settings: Homo sapiens, 50% inhibition of cellular proliferation
Experimental: as §1, §3

T2 HCC [13] = assay: MTT assay of cellular proliferation; settings: Mus musculus, 50% inhibition of cellular proliferation
Experimental: as §1, §3

MDA-MB-231 [14] = assay: MTT assay of cellular proliferation; settings: Homo sapiens; MDA-MB-231, MTT, 50% inhibition of cellular proliferation
Experimental: as §1, §3

NCI-H23 [15] = assay: MECP in cancer cell line; settings: Homo sapiens
Experimental: as §1, with “CO2. […]” for “CO2.”

NCI-N87 [16] = assay: MECP in cancer cell line; settings: Homo sapiens
Experimental: as §1, with “CO2. […]” for “CO2.”

[17] = read-out: Min. Effective conc. for Polyploidy (≥5%)

Structure (SMILES) | minimal effective concentration (Hela [1]) [µM] | minimal effective concentration (SW480 [2]) [µM] | minimal effective concentration (HCT116 [3]) [µM] | minimal effective concentration (A549 [4]) [µM] | minimal effective concentration (T2 HCC [5]) [µM] | minimal effective concentration (MDA-MB-231 [6]) [µM] | minimal effective concentration (RPEMYC^H2B-GFP cells; [17]) [µM] | minimal effective concentration (RPEMYC^H2B-GFP cells; read-out: Mitotic Arrest (≥5%)) [µM] | IC50 (RPEMYC^H2B-GFP cells) [µM] | EC50 (Hela [7]) [µM] | EC50 (NCI-H23 [8]) [µM] | EC50 (SW480 [9]) [µM] | EC50 (HCT116 [10]) [µM] | EC50 (A549 [11]) [µM] | EC50 (NCI-N87 [12]) [µM] | EC50 (T2 HCC [13]) [µM] | EC50 (MDA-MB-231 [14]) [µM] | minimal effective concentration (NCI-H23 [15]) [µM] | minimal effective concentration (NCI-N87 [16]) [µM] | also measured
COc1cc(Oc2ncnc3cc[nH]c23)cc(-n2cccn2)c1 [Compound 35, 4-(3-methoxy-5-(1H-pyrazol-1-yl)phenoxy)-5H-pyrrolo[3,2-d]pyrimidine] | 0.001 to 1 | 0.001 to 1 | 0.001 to 1 | 0.001 to 1 | 0.001 to 1 | 0.001 to 1 | 0.001 to 1 | 0.001 to 1 | 0.001 to 1 | 0.001 to 1 | 0.001 to 1 | 0.001 to 1 | 0.001 to 1 | 0.001 to 1 | 0.001 to 1 | 0.001 to 1 | 0.001 to 1 | 0.001 to 1 | 0.001 to 1 | –
COc1cc(NC(C)=O)cc(Oc2ccnc3ccc(OC)cc23)c1 [Compound 18, N-(3-methoxy-5-((6-methoxyquinolin-4-yl)oxy)phenyl)acetamide] | 0.001 to 1 | 0.001 to 1 | 0.001 to 1 | 0.001 to 1 | 0.001 to 1 | 0.001 to 1 | 0.001 to 1 | 0.001 to 1 | 0.001 to 1 | 0.001 to 1 | 0.001 to 1 | 0.001 to 1 | 0.001 to 1 | 0.001 to 1 | 0.001 to 1 | 0.001 to 1 | 0.001 to 1 | 0.001 to 1 | 0.001 to 1 | –
COc1cc(Oc2ccnc3ccc(F)cc23)cc(-n2cccn2)c1 [Compound 19, 6-fluoro-4-(3-methoxy-5-(1H-pyrazol-1-yl)phenoxy)quinoline] | 0.001 to 1 | 0.001 to 1 | 0.001 to 1 | 0.001 to 1 | 0.001 to 1 | 0.001 to 1 | 0.001 to 1 | 0.001 to 1 | 0.001 to 1 | 0.001 to 1 | 0.001 to 1 | 1 to 10 | 0.001 to 1 | 0.001 to 1 | 0.001 to 1 | 0.001 to 1 | 0.001 to 1 | 0.001 to 1 | 0.001 to 1 | –
COc1cc(NC(C)=O)cc(Oc2ccnc3ccc(F)cc23)c1 [Compound 20, N-(3-((6-fluoroquinolin-4-yl)oxy)-5-methoxyphenyl)acetamide] | 0.001 to 1 | 0.001 to 1 | 0.001 to 1 | 0.001 to 1 | 0.001 to 1 | 0.001 to 1 | 0.001 to 1 | 0.001 to 1 | 0.001 to 1 | 0.001 to 1 | 0.001 to 1 | 0.001 to 1 | 0.001 to 1 | 0.001 to 1 | 0.001 to 1 | 0.001 to 1 | 0.001 to 1 | 0.001 to 1 | 0.001 to 1 | –
COc1cc(Oc2ccnc3ccc(OC)cc23)cc(-n2cccn2)c1 [Compound 17, 6-methoxy-4(3-methoxy-5-(1H-pyrazol-1-yl)phenoxy)quinoline] | 0.001 to 1 | 0.001 to 1 | 0.001 to 1 | 0.001 to 1 | 0.001 to 1 | 0.001 to 1 | 0.001 to 1 | 0.001 to 1 | 0.001 to 1 | 0.001 to 1 | 0.001 to 1 | 0.001 to 1 | 0.001 to 1 | 0.001 to 1 | 0.001 to 1 | 0.001 to 1 | 0.001 to 1 | 0.001 to 1 | 0.001 to 1 | Min. Effective conc. for Polyploidy (≥5%) (RPEMYC^H2B-GFP cells): B (a value greater than 1.00 μM and less than or equal to 10.0 μM); Mitotic Arrest (≥5%) (RPEMYC^H2B-GFP cells): B (a value greater than 1.00 μM and less than or equal to 10.0 μM); Proliferative arrest (>50%) (RPEMYC^H2B-GFP cells): B (a value greater than 1.00 μM and less than or equal to 10.0 μM); Along with Cell Death (RPEMYC^H2B-GFP cells; listed as 16): B (a value greater than 1.00 μM and less than or equal to 10.0 μM)
COc1cc(Oc2ccnc3ccccc23)cc(-n2cccn2)c1 [Compound 12, 4-(3-methoxy-5-(1H-pyrazol-1-yl)phenoxy)quinoline] | 0.001 to 1 | 0.001 to 1 | 0.001 to 1 | 0.001 to 1 | 0.001 to 1 | 0.001 to 1 | 0.001 to 1 | 0.001 to 1 | 0.001 to 1 | 0.001 to 1 | 0.001 to 1 | 0.001 to 1 | 0.001 to 1 | 0.001 to 1 | 0.001 to 1 | 0.001 to 1 | 0.001 to 1 | 0.001 to 1 | 0.001 to 1 | –
